According to the supplement of paper PMC11061612:

Columns and labels:
Test in all cases: combination Emax (second highest fraction inhibited in the dose matrix, 72 h); higher = more inhibition; extreme values may be limits of the assay
[1] = test system: ESS-1 (Other Solid Carcinomas)
Outline: (§1)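 Cell lines in DMEM/F12 or RPMI with 10% FBS were plated in 1536-well plates, held 24 hours at 37°C, 5% CO2, then given two-drug dose matrices for 72 hours (DMSO typically 0.2%). Viability was read by CellTiter-Glo 2.0 luminescence and scaled as inhibition from 0 (vehicle wells) to 1 (blank wells). Combination Emax is the second-highest inhibition in the matrix; Bliss excess is observed combination effect minus expected EA + EB − EA·EB, EA and EB being single-agent effects.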

[2] = test system: HH (T-Cell Non-Hodgkin's Lymphoma)
Outline: as §1

[3] = test system: NCI-H524 (Small Cell Lung Carcinoma)
Outline: as §1

[4] = test system: OV-56 (Ovarian Carcinoma)
Outline: as §1

[5] = test system: A673 (Ewing's Sarcoma)
Outline: as §1

[6] = test system: GAMG (Glioblastoma)
Outline: as §1

[7] = test system: ALL-PO (B-Lymphoblastic Leukemia)
Outline: as §1

[8] = test system: L-428 (Hodgkin's Lymphoma)
Outline: as §1

[9] = test system: OE21 (Esophageal Squamous Cell Carcinoma)
Outline: as §1

[10] = test system: HuH-7 (Hepatocellular Carcinoma)
Outline: as §1

[11] = test system: BFTC-909 (Kidney Carcinoma)
Outline: as §1

[12] = test system: NCI-H2052 (Mesothelioma)
Outline: as §1

[13] = test system: BE2-M17 (Neuroblastoma)
Outline: as §1

[14] = test system: SNU-16 (Gastric Carcinoma)
Outline: as §1

[15] = test system: NCI-H209 (Small Cell Lung Carcinoma)
Outline: as §1

[16] = test system: MPP-89 (Mesothelioma)
Outline: as §1

[17] = test system: TGBC1TKB (Biliary Tract Carcinoma)
Outline: as §1

[18] = test system: BE-13 (T-Lymphoblastic Leukemia)
Outline: as §1

[19] = test system: YAPC (Pancreatic Carcinoma)
Outline: as §1

[20] = test system: WSU-NHL (B-Cell Non-Hodgkin's Lymphoma)
Outline: as §1

Structure (SMILES)	combination Emax [1]	combination Emax [2]	combination Emax [3]	combination Emax [4]	combination Emax [5]	combination Emax [6]	combination Emax [7]	combination Emax [8]	combination Emax [9]	combination Emax [10]	combination Emax [11]	combination Emax [12]	combination Emax [13]	combination Emax [14]	combination Emax [15]	combination Emax [16]	combination Emax [17]	combination Emax [18]	combination Emax [19]	combination Emax [20]
COc1cc2ncnc(Nc3ccc(F)c(Cl)c3)c2cc1OCCCN1CCOCC1 [Gefitinib] + CC(C)n1c(=O)n(C)c2cnc3cc(F)c(-c4ccc(OCCCN5CCCCC5)nc4)cc3c21 [AZD1390] (first compound max 10 µM, 7x7, partner max 0.3 µM)	0.153	0.221	0.139	0.0799	0.162	0.106	0.59	0.353	0.499	0.114	0.184	0.137	0.147	0.36	0.384	0.112	0.263	0.266	0.197	0.337
Cc1cc2ncnn2cc1Nc1ncc2c(n1)n(C1CCOCC1)c(=O)n2C [AZD7648] + CCN(CCO)CCCOc1ccc2c(Nc3cc(CC(=O)Nc4cccc(F)c4)[nH]n3)ncnc2c1 [AZD2811] (first compound max 10 µM, 7x7, partner max 1 µM)	0.665	0.245	0.985	0.276	0.765	0.514	0.979	0.347	0.492	0.23	0.384	0.382	0.379	0.569	0.596	0.258	0.313	0.764	0.271	0.976
CN(CCO)CC[C@H](CSc1ccccc1)Nc1ccc(S(=O)(=O)NC(=O)c2ccc(N3CCC([C@@H](O)c4ccccc4-c4ccc(Cl)cc4)CC3)cc2)cc1S(=O)(=O)C(F)(F)F [AZD4320] + CCN(CCO)CCCOc1ccc2c(Nc3cc(CC(=O)Nc4cccc(F)c4)[nH]n3)ncnc2c1 [AZD2811] (first compound max 1 µM, 7x7, partner max 1 µM)	0.923	0.348	0.995	0.117	1	0.845	1	0.847	0.111	0.219	0.514	0.128	0.64	0.747	1	0.526	0.424	1	0.0932	0.785
N#Cc1cnc(Nc2cc(NC[C@H]3CNCCO3)c(C(F)(F)F)cn2)cn1 [SRA737] + C=CCn1c(=O)c2cnc(Nc3ccc(N4CCN(C)CC4)cc3)nc2n1-c1cccc(C(C)(C)O)n1 [AZD1775] (first compound max 10 µM, partner max 1 µM)	1	0.475	0.912		0.635	0.726								0.995		0.661	0.271	0.993	0.495	0.989
C[C@@H](c1ccc2nccn2c1)n1nnc2ncc(-c3cnn(C)c3)nc21 [Savolitinib] + Cc1c2c(nn1C)CSCc1cc(n(C)n1)CSc1cc(c3ccccc3c1)OCCCc1c(C(=O)O)n(C)c3c-2c(Cl)ccc13 [AZD5991] (first compound max 1 µM, 7x7, partner max 1 µM)	0.16	0.879	0.351	0.151	0.302	0.167	1	0.0947	0.355	0.207	0.179	0.185	0.129	0.947	0.323	0.237	0.159	0.383	0.11	0.743
CC(=O)c1c(C)c2cnc(Nc3ccc(N4CCNCC4)cn3)nc2n(C2CCCC2)c1=O [Palbociclib] + CN(CC[C@H](CSC1=CC=CC=C1)NC2=C(C=C(C=C2)S(=O)(=O)NC(=O)C3=CC=C(C=C3)N4CCC(CC4)[C@H](C5=CC=CC=C5C6=CC=C(C=C6)Cl)O)S(=O)(=O)C(F)(F)F)CCO [AZD4320] (first compound max 10 µM, 7x7, partner max 1 µM)				0.289			1	0.866	0.663	0.309	0.55	0.296	0.756		1					
N#Cc1cnc(Nc2cc(NC[C@H]3CNCCO3)c(C(F)(F)F)cn2)cn1 [SRA737] + CCc1c2c(nc3ccc(O)cc13)-c1cc3c(c(=O)n1C2)COC(=O)[C@]3(O)CC [SN-38] (first compound max 10 µM, 7x7, partner max 0.3 µM)	1	0.452	0.938		0.945	0.878								0.995		0.73	0.367	0.99	0.696	0.994
N#Cc1cnc(Nc2cc(NC[C@H]3CNCCO3)c(C(F)(F)F)cn2)cn1 [SRA737] + O=c1[nH]cc(F)c(=O)[nH]1 [5-Fluorouracil] (first compound max 10 µM, 7x7, partner max 20 µM)	0.927	0.188	0.935		0.402	0.315								0.961		0.424	0.0891	0.863	0.406	0.965
